From patent US7345009B2, “Substituted 4-hetaryl-pyrazolines as pest control agents” (Bayer CropScience AG, priority 2002, dated 2008)

Experiments:
[1] = logP determination by reversed-phase HPLC (EEC directive 79/831 Annex V.A8), pH 2.3; format: physicochemical; details: reversed-phase HPLC column (C18), HPLC C18, 43° C., Preparation Examples
Experimental: The logP values given in the tables and Preparation Examples above are determined in accordance with EEC directive 79/831 Annex V.A8 by HPLC (High Performance Liquid Chromatography) using a reversed-phase column (C 18). Temperature: 43° C.
The determination is carried out in the acidic range at pH 2.3 using the mobile phases 0.1% aqueous phosphoric acid and acetonitrile; linear gradient from 10% acetonitrile to 90% acetonitrile.
Calibration is carried out using unbranched alkan-2-ones (of 3 to 16 carbon atoms) with known logP values (determination of the logP values by retention times using linear interpolation between two successive alkanones).

[2] = tested on: larvae of the mustard beetle (Phaedon cochleariae); assay: Phaedon larvae test (Example C); format: in vivo; details: 500 ppm active compound; after 7 days; cabbage leaves dipped
Experimental: Phaedon larvae Test Solvent: 7 parts by weight of dimethylformamide Emulsifier: 2 parts by weight of alkylaryl polyglycol ether To produce a suitable preparation of active compound, 1 part by weight of active compound is mixed with the stated amounts of solvent and emulsifier, and the concentrate is diluted with emulsifier-containing water to the desired concentration. Cabbage leaves (Brassica oleracea) are treated by being dipped into the preparation of active compound of the desired concentration and are populated with larvae of the mustard beetle (Phaedon cochleariae) while the leaves are still moist.

[3] = tested on: caterpillars of the diamondback moth (Plutella xylostella); assay: Plutella test, cabbage leaf dip (Example D); format: in vivo; details: 500 ppm active compound; after 7 days; cabbage leaves dipped
Experimental: (§1) Solvent: 7 parts by weight of dimethylformamide
(§2) Emulsifier: 2 parts by weight of alkylaryl polyglycol ether
(§3) To produce a suitable preparation of active compound, 1 part by weight of active compound is mixed with the stated amounts of solvent and emulsifier, and the concentrate is diluted with emulsifier-containing water to the desired concentration.
Cabbage leaves (Brassica oleracea) are treated by being dipped into the preparation of active compound of the desired concentration and are populated with caterpillars of the diamondback moth (Plutella xylostella) while the leaves are still moist.
(§4) After the desired period of time, the kill in % is determined. 100% means that all caterpillars have been killed; 0% means that none of the caterpillars have been killed.

[4] = tested on: caterpillars of the army worm (Spodoptera frugiperda); assay: Spodoptera frugiperda test (Example F); format: in vivo; details: 500 ppm active compound; after 7 days; cabbage leaves dipped
Experimental: Spodoptera frugiperda Test
as §1, §2, §3
Cabbage leaves (Brassica oleracea) are treated by being dipped into the preparation of active compound of the desired concentration and are populated with caterpillars of the army worm (Spodoptera frugiperda) while the leaves are still moist.
as §4

[5] = tested on: Heliothis virescens caterpillars; assay: Heliothis virescens test (Example B); format: in vivo; details: 500 ppm active compound; after 7 days; soya bean shoots dipped
Experimental: as §1, §2, §3
Soya bean shoots (Glycine max) are treated by being dipped into the preparation of active compound of the desired concentration and are populated with Heliothis virescens caterpillars while the leaves are still moist.
as §4

[6] = tested on: caterpillars of the army worm (Spodoptera exigua); assay: Spodoptera exigua test (Example E); format: in vivo; details: 500 ppm active compound; after 7 days; cabbage leaves dipped
Experimental: as §1, §2, §3
Cabbage leaves (Brassica oleracea) are treated by being dipped into the preparation of active compound of the desired concentration and are populated with caterpillars of the army worm (Spodoptera exigua) while the leaves are still moist.
as §4

[7] = tested on: caterpillars of the cotton bud worm (Heliothis armigera); assay: Heliothis armigera test (Example A); format: in vivo; details: 500 ppm active compound; after 7 days; soya bean shoots dipped
Experimental: as §1, §2, §3
Soya bean shoots (Glycine max) are treated by being dipped into the preparation of active compound of the desired concentration and are populated with caterpillars of the cotton bud worm (Heliothis armigera) while the leaves are still moist.
as §4

Compound `Cn1nnnc1CC(=O)c1ccc(Cl)cc1` [2-(1-methyltetrazol-5-yl)-4′-chloroacetophenone] has a chromatographic logP [1] of 1.78.

Compound `Cn1nnc(CC(=O)c2ccc(Cl)cc2)n1` [2-(2-methyltetrazol-5-yl)-4′-chloroacetophenone] has a chromatographic logP [1] of 2.03.

`Cc1nnnn1CC(=O)c1ccc(Cl)cc1` [2-(5-methyltetrazol-1-yl)-4′-chloroacetophenone] showed a chromatographic logP [1] of 1.81.

Compound `Cc1nnn(CC(=O)c2ccc(Cl)cc2)n1` [2-(5-methyltetrazol-2-yl)-4′-chloroacetophenone] has a chromatographic logP [1] of 2.14.

Compound `O=C(Cc1nn[nH]n1)c1ccc(Cl)cc1` [2-tetrazol-5-yl-4′-chloroacetophenone] has a chromatographic logP [1] of 1.44.

In the case of `Cc1nnc(C2CNN=C2c2ccc(Cl)cc2)s1` (centres unmarked) [3-(4-chlorophenyl)-4-(2-methyl-1,3,4-thiadiazol-5-yl)-4,5-dihydro-1H-pyrazole], the chromatographic logP [1] is reported as 1.77.

With `Cn1nnc(C2CNN=C2c2ccc(Cl)cc2)n1` (centres unmarked) [3-(4-chlorophenyl)-4-(2-methyltetrazol-5-yl)-4,5-dihydro-1H-pyrazole] the chromatographic logP [1] was 1.67.

With `Cc1nnn(C2CNN=C2c2ccc(Cl)cc2)n1` (centres unmarked) [3-(4-chlorophenyl)-4-(5-methyltetrazol-2-yl)-4,5-dihydro-1H-pyrazole] the chromatographic logP [1] was 2.11.

With `Cc1nnn(C2CN(C(=O)Nc3ccc(OC(F)(F)F)cc3)N=C2c2ccc(Cl)cc2)n1` (centres unmarked) [Example 1, N-(4-trifluoromethoxy)-3-(4-chlorophenyl)-4-(5-methyltetrazol-2-yl)-4,5-dihydro-1-pyrazolecarboxanilide] the kill [2] was 100%, the kill [3] was 100% and the chromatographic logP [1] was 4. The kill [4] was 100%, the kill [5] was 100% and the kill [6] was 100%.

Compound `Cc1nnn(C2CN(C(=O)N(CC#N)c3ccc(OC(F)(F)F)cc3)N=C2c2ccc(Cl)cc2)n1` (centres unmarked) [Example 2, N-cyanomethyl-N-trifluoromethoxy-3-(4-chlorophenyl)-4-(5-methyltetrazol-2-yl)-4,5-dihydro-1-pyrazolecarboxanilide] has a kill [2] of 100%, a kill [7] of 100% and a kill [3] of 100%. The chromatographic logP [1] was 3.68, the kill [4] was 100% and the kill [6] was 100%.

Work on `Cc1nnc(C2CN(C(=O)Nc3ccc(OC(F)(F)F)cc3)N=C2c2ccc(Cl)cc2)s1` (centres unmarked) [Example 4, N-(4-trifluoromethoxy)-3-(4-chlorophenyl)-4-(5-methyl-1,3,4-thiadiazol-2-yl)-4,5-dihydro-1-pyrazolecarboxanilide] yielded a kill [2] of 100%, a kill [7] of 100% and a kill [3] of 100%. For the same compound, the chromatographic logP [1] was 3.77, the kill [4] was 100% and the kill [6] was 100%.
